{"source": "paper PMC4853715", "about": "“Design, Synthesis and Antitumor Activity of Novel link-bridge and B-Ring Modified Combretastatin A-4 (CA-4) Analogues as Potent Antitubulin Agents” (Scientific Reports, 2016)", "key": {"A549": {"system": "A549", "test": "MTT assay, antiproliferative activity", "format": "cell-based", "conditions": "Homo sapiens, 48 h, ± SD", "experimental": "(§1) The in vitro anticancer activities of the prepared compounds against HepG2, Hela, MCF-7, A549, HT-29 and SSC-4 cell lines were evaluated as described in the literature. Target tumor cells were grown to log phase in DMEM medium supplemented with 10% fetal bovine serum. After reaching a dilution of 1 × 10^5 cells Ml^−1 with the medium, 100 μL of the obtained cell suspension was added to each well of 96-well culture plates. Subsequently, incubation was performed at 37 °C in 5% CO2 atmosphere for 12 h before the cytotoxicity assessment. Tested samples at preset concentrations were added to 6 wells with CA-4 being employed as a positive reference. After 48 h exposure period, 25 μL of PBS containing 2.5 mg mL^−1 of MTT (Sigma, USA) was added to each well. After 4 h, the medium was replaced by 150 μL DMSO to dissolve the purple formazan crystals produced. The absorbance at 570 nm of each well was measured with Synergy™ 2 Multi-Mode Microplate Reader. Cell viability (%) was calculated using the following equation: cell viability (%) = (Atreatment/Acontrol) × 100%. The data represented the mean of three independent experiments in triplicate and were expressed as means ± SD."}, "HepG2": {"system": "HepG2", "test": "MTT assay, antiproliferative activity", "format": "cell-based", "conditions": "Homo sapiens, 48 h, ± SD", "experimental": "as §1"}, "MCF-7": {"system": "MCF-7", "test": "MTT assay, antiproliferative activity", "format": "cell-based", "conditions": "Homo sapiens, MCF7; MCF-7, MTT, 48 h, ± SD", "experimental": "as §1"}, "SSC-4": {"system": "SSC-4", "test": "MTT assay, antiproliferative activity", "format": "cell-based", "conditions": "Homo sapiens; SSC-4, MTT, 48 h, ± SD", "experimental": "as §1"}, "Bovine brain tubulin": {"system": "Bovine brain tubulin", "test": "Effects on tubulin polymerization (turbidimetric assembly)", "format": "biochemical", "conditions": "10 μM tubulin, 30 °C, 20 min incubation; read-out: Tubulin inhibition IC50", "experimental": "Bovine brain tubulin was purified as described previously. To evaluate the effect of the compounds on tubulin assembly in vitro, compounds of varying concentrations were preincubated with 10 μM tubulin in glutamate buffer at 30 °C and then cooled to 0 °C. After addition of GTP, the mixtures were transferred to 0 °C cuvettes in a recording BioTek Synergy 4 multifunction microplate spectrophotometer and warmed up to 30 °C and the assembly of tubulin was observed turbidimetrically (TU660, USA)."}, "[1]": {"system": "HepG2, Hela, MCF-7, A549, HT-29 and SSC-4 cell lines", "test": "MTT assay, panel of six cancer cell lines", "format": "cell-based", "conditions": "Homo sapiens; range over six cell lines; read-out: IC50 values against a panel of cancer cell lines", "experimental": "as §1"}, "[2]": {"system": "Tubulin isolated from porcine brain tissue", "test": "Tubulin polymerization assay (kit, absorbance 340 nm)", "format": "biochemical", "conditions": "37 °C", "experimental": "Tubulin polymerization was determined with the tubulin polymerization assay kit (Cytoskeleton, Denver, CO which was purchased from Cytoskeleton, Beyotime, China. Tubulin isolated from porcine brain tissue was used in this commercial kit.) It is based on the principal that light is scattered by microtubules to an extent that is proportional to the concentration of the microtubule polymer. Compounds that interact with tubulin will alter the polymerization of tubulin, and this can be detected using a spectrophotometer. Tubulin polymerization dynamics was monitored through measuring the change of absorbance at 340 nm every 2 min for 30 min at 37 °C on a spectrophotometer (Perkin-Elmer)."}, "[3]": {"system": "interphase microtubules of A549 cells", "test": "Confocal microscopy assay of microtubule morphology", "format": "cell-based, human", "conditions": "A549, 1.0 μM, 48 h", "experimental": "After incubating for 48 h, A549 cells were washed with PBS for three times and fixed with 4% paraformaldehyde for 20 min, permeabilized with cold methanol for another 10 min. After that, the cells were blocked with 5% BSA for 1 h. Subsequently, the cells were washed with PBS, and incubated with anti-tubulin antibody in 3% BSA (1:200 Cytoskeleton, Inc.) overnight at 4 °C. After being washed with PBS for three times, each cover slip was added 200 μL of Cy3-labeled goat anti-mouse IgG (H + L) in 3% BSA (1:500, Cytoskeleton, Inc.) and incubated for 1 h at room temperature. At last, A549 cells was stained with 200 μL of DAPI for 5 min and observed under an confocal microscope (Olympus, USA)."}, "[4]": {"test": "Body weight of treated xenograft mice", "format": "in vivo, BALB/c nude mice", "conditions": "whole treatment period", "experimental": "Male BALB/c nude mice, five weeks old and weighing 18–22 g, were supplied by Shanghai Laboratory Animal Limited Company. The mice were raised in air-conditioned rooms under controlled lighting (12 h light-dark cycle at 24 °C) and were fed with standard laboratory food and water ad libitum. Before injection into the mice, the A549 cells were harvested by trypsinization and washed three times with cold serum-free medium and then injected in a total volume of 0.1 mL using a 1 mL latex-free syringe (BD) within 30 min of harvest. Mice were inoculated subcutaneously with A549 cells (5.0 × 10^6) on their shoulders. […] The control group received 0.9% normal saline. Tumor size was measured once every 2 days in two per-pendicular dimensions with Vernier calipers and converted to tumor volume (TV) using the formula: (ab^2)/2, where a and b refer to the longer and shorter dimensions, respectively. The body weight of the animals was measured twice a week to assess toxicity of the treatments at the same time as the tumor dimension measurement and the mortality was monitored daily. After the treatments for eight weeks, the animals were euthanized by cervical dislocation. This study conformed to the Guide for the Care and Use of Laboratory Animals as published by the US National Institutes of Health and was approved by the Institutional Ethics Review Board of Nanjing University."}}}
{"molecule": "COc1cc(/C=N/NC(=O)c2cn(Cc3ccccc3)c3ccccc23)cc(OC)c1OC", "note": "[Compound 7]", "values": [{"measurement": "IC50", "setting": "A549", "result": "80 ± 10", "unit": "nM"}, {"measurement": "IC50", "setting": "HepG2", "result": "630 ± 120", "unit": "nM"}, {"measurement": "IC50", "setting": "MCF-7", "result": "640 ± 110", "unit": "nM"}, {"measurement": "IC50", "setting": "SSC-4", "result": "35600 ± 1910", "unit": "nM"}, {"measurement": "IC50", "setting": "Bovine brain tubulin", "result": 4460, "unit": "nM"}, {"measurement": "IC50", "setting": "[1]", "result": "80 to 35600", "unit": "nM"}, {"measurement": "tubulin polymerization (in words)", "setting": "[2]; 1.0 μM", "result": "slightly inhibiting"}, {"measurement": "tubulin polymerization (in words)", "setting": "[2]; 5.0 μM", "result": "nearly completely blocked"}, {"measurement": "microtubule morphology", "setting": "[3]", "result": "disorganized interphase microtubules"}, {"measurement": "body weight changes during treatment", "setting": "[4]", "result": "no significant weight changes"}]}
